Measurements from article PMC12977544, “Phenotypic high-throughput screening identifies modulators of gut microbial choline metabolism” (mBio, 2026).

Columns and labels:
[1] = system: Anaerococcus hydrogenalis DSM 7454; assay: TMA inhibition in bacterial whole cells (LC–MS/MS of d9-TMA from d9-choline); format: cell-based; conditions: 1 mM d9-choline in PBS, 75 min, 37°C, anaerobic; for EC50: Anaerococcus hydrogenalis, DSM7454, 1.25 h
Description: (§1) For TMA inhibition assays, E. coli and P. mirabilis were grown in NCE medium supplemented with 20 mM choline chloride, A. hydrogenalis was grown in MEGA medium supplemented with 3 mM choline chloride, and C. sporogenes was grown in BHI medium supplemented with 20 mM of choline chloride to induce expression of the cut gene cluster. For MIC assays, all bacteria strains were grown in MEGA medium.
(§2) Compounds were stored as 10 mM DMSO stocks at –20°C and diluted in DMSO to prepare varying concentrations of inhibitors for testing. Bacteria were grown anaerobically overnight in media supplemented with choline as described above. Cells were pelleted and resuspended in PBS, and d9-choline chloride was added to a final concentration of 1 mM. The final OD600 of the PBS cell resuspensions is as follows: 0.4 (E. coli), 0.15–0.2 (P. mirabilis), 0.2 (C. sporogenes), and 0.4 (A. hydrogenalis). The resuspended cells were added to 96-well plates containing inhibitors (final concentration of 1% DMSO, with final inhibitor concentrations ranging between 0 and 325 µM). The plates were sealed and incubated for 75 min (or 90 min for P. mirabilis) at 37°C. Following incubation, the plates were removed from the anaerobic chamber and analyzed immediately or kept at –20°C until LC–MS/MS analysis. Each inhibitor concentration was tested in triplicate. EC50 values were calculated with GraphPad Prism by fitting the log(inhibitor) vs response—Variable slope (four-parameter) model for non-linear regression.
(§3) Samples were kept frozen until analysis and kept cold on ice during handling due to the volatility of TMA. Bacterial cell resuspensions in PBS were diluted 100-fold in LCMS-grade acetonitrile with 0.1% formic acid to lyse cells, precipitate proteins, and extract metabolites. Samples were centrifuged at 4,000 rpm for 10 min at 4°C to pellet proteins. The supernatants were then further diluted 20-fold in LCMS-grade acetonitrile with 0.1% formic acid, and the resulting solution was analyzed by LC–MS/MS.
(§4) LC–MS/MS analysis was performed on an Agilent 1290/6470 Triple Quadrupole LC–MS instrument (Agilent Technologies) using electrospray ionization. The mass spectrometer was operated in multiple reaction monitoring (MRM) mode with positive ionization monitoring. The precursor–product ion pairs used in MRM mode were as follows: m/z 69.1m/z → 49.1 (d9-TMA) and m/z 113.2 m/z → 69.1 (d9-choline). The capillary voltage was set to 4.0 kV, and the fragmentor voltage was set to 30 V (d9-TMA) and 115 V (d9-choline). The collision energy for the precursor–product ion pairs was set to 29 V (d9-TMA) and 21 V (d9-choline). MS^1 resolution was set to wide and MS^2 resolution to unit. The drying gas temperature was maintained at 250°C, with a flow rate of 11 L/min and a nebulizer pressure of 45 psi. The time filter width used was 0.07 min. The injection volume of all samples was 1 μL. Samples were injected onto InfinityLab Poroshell 120 (Agilent) HILIC columns (2.7 μm, 100 mm × 2.1 mm, 100 Å) preceded by InfinityLab Poroshell 120 HILIC guard columns (2.1 mm, 1.9µm UHPLC guard). The LC conditions on the binary pump were as follows: a gradient of 5–35% A increasing over 1.95 min (1.2 mL/min), a gradient of 35–5% A decreasing over 0.05 min (1.6 mL/min), and held at 5% A for 0.5 min (2 mL/min). […] Solvent A was 10 mM ammonium formate with 0.1% formic acid, and solvent B was acetonitrile with 0.1% formic acid. Data analysis was performed with Mass Hunter Workstation Data Acquisition and Qualitative Analysis software (Agilent Technologies).

[2] = system: Clostridium sporogenes ATCC 15579; assay: as above; format: cell-based; conditions: Clostridium sporogenes, ATCC15579, 1.25 h; 1 mM d9-choline in PBS, 75 min, 37°C, anaerobic
Description: as §1, §2, §3, §4

[3] = system: Proteus mirabilis ATCC 29906; assay: as above; format: cell-based; conditions: Proteus mirabilis, ATCC29906, 1.5 h; 1 mM d9-choline in PBS, 90 min, 37°C, anaerobic; read-out: EC50 in whole cells, P. mirabilis (TMA inhibition)
Description: as §1, §2, §3, §4

[4] = system: choline-metabolizing gut bacteria (E. coli, P. mirabilis, C. sporogenes, A. hydrogenalis); assay: TMA inhibition across the panel of four choline-metabolizing gut bacteria; format: cell-based; conditions: for EC50: read-out: EC50 values for TMA inhibition across the choline-metabolizing bacteria
Description: We then used secondary assays to prioritize scaffolds that had broad-spectrum TMA inhibitory activity against additional choline-metabolizing gut bacteria. For this, we used Clostridium sporogenes ATCC 15579, a human gut isolate that is able to efficiently ferment choline in addition to other carbon sources, as well as Anaerococcus hydrogenalis DSM 7454 and Proteus mirabilis ATCC 29906, human gut isolates previously identified to metabolize choline in vitro ([61]). In particular, E. coli MS 200-1 and C. sporogenes ATCC 15579 have been used in gnotobiotic studies to investigate the effects of bacterial choline metabolism on the host and microbiome ([46], [61], [62]). These strains are representative of taxa frequently detected in humans ([63]) and, together with E. coli, are representative of the major phyla and genera in which TMA producers have been detected across human gut isolates ([48]). Importantly, this group of strains included both gram-positive and gram-negative bacteria. Gram-negative bacteria have an additional outer membrane layer and associated efflux pumps ([29]), which typically decreases small molecule permeability compared to gram-positive bacteria. It also included bacteria with cut gene cluster architectures that differ in the number and types of microcompartment proteins encoded and in the size of the CutC enzyme ([48]). We hypothesized that testing the inhibitors against multiple choline-utilizing gut bacteria would increase the likelihood of identifying compounds with broad-spectrum activity.
as §2

E. coli MS 200-1 = assay: Growth inhibition of E. coli cultures in choline- and glycerol-containing minimal media; format: cell-based, Escherichia coli MS 200-1; conditions: for Effect on growth of E. coli MS 200-1 in glycerol medium: glycerol NCE minimal medium
Description: To validate the potential hits from the HTS, we tested the 178 compounds for inhibition of growth of E. coli MS 200-1 in glycerol minimal media at 30 µg/mL, following up with those without activity. […]. We then determined EC50 values for inhibition of TMA production from choline by bacterial cultures incubated with [trimethyl-d9]choline in phosphate-buffered saline. Of the 178 compounds tested in both growth and TMA inhibition assays, 20 inhibited TMA generation by E. coli MS 200-1 without growth-inhibitory effects in glycerol minimal medium.
NCE media was adapted based on the “no carbon E” media as previously described ([14]), and contains 29 mM potassium phosphate monobasic, 29 mM potassium phosphate dibasic, 17 mM ammonium sodium phosphate dibasic, 40 mM sodium fumarate dibasic, 0.1% (wt/vol) casamino acids, and either 20 mM choline chloride or 3 g/L glycerol. This mixture was supplemented with 1 mM magnesium sulfate, 1% ATCC vitamin supplement, and 1% ATCC trace mineral supplement.

[5] = system: Bacteroides thetaiotaomicron VPI-5482; assay: MIC in MEGA medium; format: cell-based; conditions: Bacteroides thetaiotaomicron, VPI5482; anaerobic, 37°C, 24 h, up to 200 µM; read-out: MIC in MEGA medium, B. thetaiotaomicron
Description: as §1

For `Cc1ccc(-c2cc(C(=O)NCCCN3CCc4ccccc4C3)c(C)[nH]2)cc1C` [Compound 5], the “EC50 in whole cells, A. hydrogenalis (TMA inhibition)” value [1] was “No inhibition”, the EC50 [2] was 28 µM and the EC50 [3] was 33 µM. The EC50 [4] was 12 to 33 µM and the “Effect on growth of E. coli MS 200-1 in glycerol medium” value (E. coli MS 200-1) was “no impact on growth”.
In the case of `Cc1ccc(-c2cc(C(=O)NCCCN3CCC(C)CC3)c(C)[nH]2)cc1C` [Compound 6], the EC50 [1] is reported as 31 µM, the EC50 [2] is reported as 132 µM and the EC50 [3] is reported as 48 µM. The “Inhibition of E. coli growth on choline” value (E. coli MS 200-1; choline minimal medium, 7 h, 6: 125–500 µM, 42: 30–100 µM) was “dose-dependent”, the “Effect on growth of E. coli MS 200-1 in glycerol medium” value (E. coli MS 200-1) was “not observed in glycerol” and the MIC [5] was over 200 µM.
`Cc1ccc(-c2cc(C(=O)NCCCCCN3CCCCCC3)c(C)[nH]2)cc1C` [Compound 45] showed an EC50 [1] of 18 µM, an EC50 [2] of 14 µM and an EC50 [3] of 7 µM. For the same molecule, the “Fold more potent than 6 across the panel of bacteria” value ([4]; compared with compound 6) was 2–10 fold, the “Reduction of conversion of choline to TMA by bacteria in vitro” value ([4]; in vitro) was over 80% and the EC50 [4] was 2 to 18 µM. It also gave an MIC [5] of over 200 µM.
